Reference: US9073911B2, “Pyrazole derivatives” (HOFFMANN-LA ROCHE INC., priority 2011, dated 2015)
Where a name gives a salt, the structure may show the parent alone.

Tests used:
mouse TAAR1 = mouse TAAR1 (Mus musculus (Mouse), UniProt Q923Y8); test: Radioligand binding assay on mouse TAAR1; settings: for Ki: membranes of HEK-293 cells stably expressing mouse TAAR1, first value of cell mouse/rat
Method: (§1) Construction of TAAR Expression Plasmids and Stably Transfected Cell Lines
(§2) For the construction of expression plasmids the coding sequences of human, rat and mouse TAAR 1 were amplified from genomic DNA essentially as described by Lindemann et al.. The Expand High Fidelity PCR System (Roche Diagnostics) was used with 1.5 mM Mg^2+ and purified PCR products were cloned into pCR2.1-TOPO cloning vector (Invitrogen) following the instructions of the manufacturer. PCR products were subcloned into the pIRESneo2 vector (BD Clontech, Palo Alto, Calif.), and expression vectors were sequence verified before introduction in cell lines.
(§3) HEK293 cells (ATCC # CRL-1573) were cultured essentially as described by Lindemann et al. (2005). For the generation of stably transfected cell lines HEK293 cells were transfected with the pIRESneo2 expression plasmids containing the TAAR coding sequences (described above) with Lipofectamine 2000 (Invitrogen) according to the instructions of the manufacturer, and 24 hrs post transfection the culture medium was supplemented with 1 mg/ml G418 (Sigma, Buchs, Switzerland). After a culture period of about 10 d clones were isolated, expanded and tested for responsiveness to trace amines (all compounds purchased from Sigma) with the cAMP Biotrak Enzyme immunoassay (EIA) System (Amersham) following the non-acetylation EIA procedure provided by the manufacturer.
Radioligand Binding Assay on Mouse TAAR1
(§4) Membrane Preparation and Radioligand Binding.
HEK-293 cells stably expressing mouse TAAR1 were maintained at 37° C. and 5% CO2 in DMEM high glucose medium, containing fetal calf serum (10%, heat inactivated for 30 min at 56° C.), penicillin/streptomycin (1%), and 375 μg/ml geneticin (Gibco). Cells were released from culture flasks using trypsin/EDTA, harvested, washed twice with ice-cold PBS (without Ca^2+ and Mg^2+), pelleted at 1,000 rpm for 5 min at 4° C., frozen and stored at −80° C. Frozen pellets were suspended in 20 ml HEPES-NaOH (20 mM, pH 7.4) containing 10 mM EDTA and homogenized with a Polytron (PT 6000, Kinematica) at 14,000 rpm for 20 s. The homogenate was centrifuged at 48,000×g for 30 min at 4° C. Subsequently, the supernatant was removed and discarded, and the pellet resuspended in 20 ml HEPES-NaOH (20 mM, pH 7.4) containing 0.1 mM EDTA using the Polytron (20 s at 14,000 rpm). This procedure was repeated and the final pellet resuspended in HEPES-NaOH containing 0.1 mM EDTA and homogenized using the Polytron. Typically, aliquots of 2 ml membrane portions were stored at −80° C. With each new membrane batch the dissociation constant (Kd) was determined via a saturation curve. The TAAR1 radioligand ^3[H]—(S)-4-[(ethyl-phenyl-amino)-methyl]-4,5-dihydro-oxazol-2-ylamine (described in WO 2008/098857) was used at a concentration equal to the calculated Kd value, that was usually around 0.7 nM, resulting in the binding of approximately 0.5% of the radioligand and a specific binding representing approximately 70% of the total binding. Nonspecific binding was defined as the amount of ^3[H]—(S)-4-[(ethyl-phenyl-amino)-methyl]-4,5-dihydro-oxazol-2-ylamine bound in the presence of 10 μM unlabeled ligand. All compounds were tested at a broad range of concentrations ([…]) in duplicates. […] The 96 deep well plates were incubated for 1 hr at 4° C. Incubations were terminated by rapid filtration through Unifilter-96 plates (Packard Instrument Company) and glass filters GF/C (Perkin Elmer) presoaked for 1 hr in polyethylenimine (0.3%) and washed 3 times with 1 ml of cold binding buffer. After addition of 45 μl of Microscint 40 (PerkinElmer) the Unifilter-96 plate was sealed and after 1 hr the radioactivity counted using a TopCount Microplate Scintillation Counter (Packard Instrument Company).

rat TAAR1 = rat TAAR1 (Rattus norvegicus (Rat), UniProt Q923Y9); test: Radioligand binding assay on rat TAAR1; settings: for Ki: membranes of HEK-293 cells stably expressing rat TAAR1, second value of cell mouse/rat
Sequence of rat TAAR1 (Q923Y9 whole entry): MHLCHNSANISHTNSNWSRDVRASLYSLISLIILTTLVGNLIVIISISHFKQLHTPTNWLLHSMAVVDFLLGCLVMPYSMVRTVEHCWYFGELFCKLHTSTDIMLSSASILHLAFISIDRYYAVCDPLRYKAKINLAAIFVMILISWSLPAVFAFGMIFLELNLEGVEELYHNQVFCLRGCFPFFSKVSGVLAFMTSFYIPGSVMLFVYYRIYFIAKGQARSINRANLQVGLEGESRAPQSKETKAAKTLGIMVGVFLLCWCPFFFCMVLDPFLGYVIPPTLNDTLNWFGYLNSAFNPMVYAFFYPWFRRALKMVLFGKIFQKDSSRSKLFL
Method: as §1, §2, §3
Radioligand Binding Assay on rat TAAR1
as §4
HEK-293 cells stably expressing rat TAAR1 were maintained at 37° C. and 5% CO2 in DMEM high glucose medium, containing fetal calf serum (10%, heat inactivated for 30 min at 56° C.), penicillin/streptomycin (1%), and 375 μg/ml geneticin (Gibco). Cells were released from culture flasks using trypsin/EDTA, harvested, washed twice with ice-cold PBS (without Ca^2+ and Mg^2+), pelleted at 1,000 rpm for 5 min at 4° C., frozen and stored at −80° C. Frozen pellets were suspended in 20 ml HEPES-NaOH (20 mM, pH 7.4) containing 10 mM EDTA and homogenized with a Polytron (PT 6000, Kinematica) at 14,000 rpm for 20 s. The homogenate was centrifuged at 48,000×g for 30 min at 4° C. Subsequently, the supernatant was removed and discarded, and the pellet resuspended in 20 ml HEPES-NaOH (20 mM, pH 7.4) containing 0.1 mM EDTA using the Polytron (20 s at 14,000 rpm). This procedure was repeated and the final pellet resuspended in HEPES-NaOH containing 0.1 mM EDTA and homogenized using the Polytron. Typically, aliquots of 2 ml membrane portions were stored at −80° C. With each new membrane batch the dissociation constant (Kd) was determined via a saturation curve.
Nonspecific binding was defined as the amount of ^3-[H]-(S)-4-[(ethyl-phenyl-amino)-methyl]-4,5-dihydro-oxazol-2-ylamine bound in the presence of 10 μM unlabeled ligand. All compounds were tested at a broad range of concentrations (10 pM to 10 μM) in duplicates. […] The 96 deep well plates were incubated for 1 hr at 4° C. Incubations were terminated by rapid filtration through Unifilter-96 plates (Packard Instrument Company) and glass filters GF/C (Perkin Elmer) presoaked for 1 hr in polyethylenimine (0.3%) and washed 3 times with 1 ml of cold binding buffer. After addition of 45 μl of Microscint 40 (PerkinElmer) the Unifilter-96 plate was sealed and after 1 hr the ratioactivity counted using a TopCount Microplate Scintillation Counter (Packard Instrument Company).

Sequence of mouse TAAR1 (Q923Y8 whole entry): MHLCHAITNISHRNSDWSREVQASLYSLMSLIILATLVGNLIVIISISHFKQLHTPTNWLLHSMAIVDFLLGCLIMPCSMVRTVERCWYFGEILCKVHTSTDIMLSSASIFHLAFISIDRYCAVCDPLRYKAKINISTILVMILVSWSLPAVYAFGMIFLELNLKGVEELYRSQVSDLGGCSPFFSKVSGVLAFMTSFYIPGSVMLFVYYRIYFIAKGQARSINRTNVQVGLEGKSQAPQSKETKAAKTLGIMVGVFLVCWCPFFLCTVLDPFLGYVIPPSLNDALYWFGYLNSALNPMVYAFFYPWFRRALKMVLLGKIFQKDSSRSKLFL

Row | SMILES | Ki (mouse TAAR1) [µM] | Ki (rat TAAR1) [µM] | Kd (mouse TAAR1; mouse TAAR1 membranes, saturation curve, usual value, read-out: calculated Kd value of the TAAR1 radioligand) [nM] | Kd (rat TAAR1; rat TAAR1 membranes, saturation curve, usual value, read-out: calculated Kd value of the TAAR1 radioligand) [nM]
1 | COc1ccc(-c2cc(C(=O)Nc3ccc([C@H]4CNCCO4)cc3)[nH]n2)cc1OC [Example 11, (S)-3-(3,4-dimethoxyphenyl)-N-(4-(morpholin-2-yl)phenyl)-1H-pyrazole-5-carboxamide hydrochloride] | 0.0026 | 0.0127 |  | 
2 | O=C(Nc1ccc([C@@H]2CNCCO2)cc1)c1cc(-c2ccccc2Cl)n[nH]1 [Example 13, (R)-3-(2-chlorophenyl)-N-(4-(morpholin-2-yl)phenyl)-1H-pyrazole-5-carboxamide hydrochloride] | 0.0008 | 0.001 |  | 
3 | O=C(Nc1ccc([C@H]2CNCCO2)cc1)c1ccn(-c2cc(C(F)(F)F)ncn2)n1 [Example 51, (S)—N-(4-(Morpholin-2-yl)phenyl)-1-(6-(trifluoromethyl)pyrimidin-4-yl)-1H-pyrazole-3-carboxamide hydrochloride] | 0.0142 | 0.0071 |  | 
4 | CCN(C[C@H]1COC(N)=N1)c1ccccc1 [^3[H]—(S)-4-[(ethyl-phenyl-amino)-methyl]-4,5-dihydro-oxazol-2-ylamine, reference compound] |  |  | ~0.7 | ~2.3
5 | COc1cccc(-c2cc(C(=O)Nc3ccc([C@H]4CNCCO4)cc3)n[nH]2)c1 [Example 4, (S)-3-(3-methoxyphenyl)-N-(4-(morpholin-2-yl)phenyl)-1H-pyrazole-5-carboxamide hydrochloride] | 0.001 | 0.0022 |  | 
6 | O=C(Nc1ccc([C@H]2CNCCO2)cc1)c1ccn(-c2ccc(C(F)(F)F)cn2)n1 [Example 33, (S)—N-(4-(Morpholin-2-yl)phenyl)-1-(5-(trifluoromethyl)pyridin-2-yl)-1H-pyrazole-3-carboxamide hydrochloride] | 0.0028 | 0.0016 |  | 
7 | O=C(Nc1ccc([C@H]2CNCCO2)cc1)c1cc(-c2ccccc2)[nH]n1 [Example 1, (S)—N-(4-(morpholin-2-yl)phenyl)-5-phenyl-1H-pyrazole-3-carboxamide hydrochloride] | 0.0007 | 0.0043 |  | 
8 | O=C(Nc1ccc([C@H]2CNCCO2)cc1)c1cc(-c2cccc(OC(F)F)c2)n[nH]1 [Example 40, (S)-3-(3-(Difluoromethoxy)phenyl)-N-(4-(morpholin-2-yl)phenyl)-1H-pyrazole-5-carboxamide hydrochloride] | 0.0005 | 0.0013 |  | 
9 | O=C(Nc1ccc([C@@H]2CNCCO2)cc1)c1ccn(-c2ccc(F)cc2)n1 [Example 31, (R)-1-(4-Fluorophenyl)-N-(4-(morpholin-2-yl)phenyl)-1H-pyrazole-3-carboxamide hydrochloride] | 0.0013 | 0.0024 |  | 
10 | O=C(Nc1ccc([C@@H]2CNCCO2)cc1)c1cc(-c2ccc(Cl)cc2)n[nH]1 [Example 12, (R)-3-(4-chlorophenyl)-N-(4-(morpholin-2-yl)phenyl)-1H-pyrazole-5-carboxamide hydrochloride] | 0.0005 | 0.0004 |  | 
11 | CCn1nc(-c2cccc(C#N)c2)cc1C(=O)Nc1ccc([C@H]2CNCCO2)cc1 [Example 25, (S)-3-(3-cyanophenyl)-1-ethyl-N-(4-(morpholin-2-yl)phenyl)-1H-pyrazole-5-carboxamide hydrochloride] | 0.0051 | 0.0078 |  | 
12 | O=C(Nc1ccc([C@H]2CNCCO2)cc1)c1cc(-c2ccccc2F)n[nH]1 [Example 8, (S)-3-(2-fluorophenyl)-N-(4-(morpholin-2-yl)phenyl)-1H-pyrazole-5-carboxamide hydrochloride] | 0.0009 | 0.0073 |  | 
13 | O=C(Nc1ccc([C@@H]2CNCCO2)cc1)c1ccn(-c2ccc(C(F)(F)F)cn2)n1 [Example 35, (R)—N-(4-(Morpholin-2-yl)phenyl)-1-(5-(trifluoromethyl)pyridin-2-yl)-1H-pyrazole-3-carboxamide hydrochloride] | 0.0022 | 0.0006 |  | 
14 | N#Cc1cccc(-c2cc(C(=O)Nc3ccc(C4CCNC4)cc3)[nH]n2)c1 (racemic) [Example 38, (rac) 3-(3-Cyanophenyl)-N-(4-(pyrrolidin-3-yl)phenyl)-1H-pyrazole-5-carboxamide hydrochloride] | 0.0021 | 0.0042 |  | 
15 | COc1ccccc1-c1cc(C(=O)Nc2ccc([C@H]3CNCCO3)cc2)[nH]n1 [Example 9, (S)-3-(2-methoxyphenyl)-N-(4-(morpholin-2-yl)phenyl)-1H-pyrazole-5-carboxamide hydrochloride] | 0.0014 | 0.014 |  | 
16 | O=C(Nc1ccc([C@H]2CNCCO2)cc1)c1ccn(-c2nccnc2Cl)n1 [Example 49, (S)-1-(3-Chloropyrazin-2-yl)-N-(4-(morpholin-2-yl)phenyl)-1H-pyrazole-3-carboxamide hydrochloride] | 0.0142 | 0.139 |  | 
17 | O=C(Nc1ccc([C@H]2CNCCO2)cc1)c1ccn(-c2ccc(OC(F)F)cc2)n1 [Example 45, (S)-1-(4-(Difluoromethoxy)phenyl)-N-(4-(morpholin-2-yl)phenyl)-1H-pyrazole-3-carboxamide hydrochloride] | 0.0018 | 0.0014 |  | 
18 | O=C(Nc1ccc([C@H]2CNCCO2)cc1)c1ccn(-c2ccc(Cl)cn2)n1 [Example 32, (S)-1-(5-Chloropyridin-2-yl)-N-(4-(morpholin-2-yl)phenyl)-1H-pyrazole-3-carboxamide hydrochloride] | 0.0007 | 0.0011 |  | 
19 | CCn1nc(-c2cccc(OC(F)F)c2)cc1C(=O)Nc1ccc([C@H]2CNCCO2)cc1 [Example 42, (S)-3-(3-(Difluoromethoxy)phenyl)-1-ethyl-N-(4-(morpholin-2-yl)phenyl)-1H-pyrazole-5-carboxamide hydrochloride] | 0.001 | 0.0021 |  | 
20 | N#Cc1cccc(-c2cc(C(=O)Nc3ccc([C@@H]4CCCNC4)cc3)[nH]n2)c1 [Example 36, (S)-3-(3-Cyanophenyl)-N-(4-(piperidin-3-yl)phenyl)-1H-pyrazole-5-carboxamide hydrochloride] | 0.0014 | 0.0138 |  | 
